Active and inactive are the calls of the source.
Assays:
[1] = target: T1, Short transient receptor potential channel 4 (Mus musculus, UniProt Q9QUQ5); experiment: calcium entry via TRPC4 opening agents – cell-based, HEK293 TRPC4/mu-opioid, Fluo-4 calcium, dose response (AID 434937); type: functional
T1 sequence (Q9QUQ5 whole entry): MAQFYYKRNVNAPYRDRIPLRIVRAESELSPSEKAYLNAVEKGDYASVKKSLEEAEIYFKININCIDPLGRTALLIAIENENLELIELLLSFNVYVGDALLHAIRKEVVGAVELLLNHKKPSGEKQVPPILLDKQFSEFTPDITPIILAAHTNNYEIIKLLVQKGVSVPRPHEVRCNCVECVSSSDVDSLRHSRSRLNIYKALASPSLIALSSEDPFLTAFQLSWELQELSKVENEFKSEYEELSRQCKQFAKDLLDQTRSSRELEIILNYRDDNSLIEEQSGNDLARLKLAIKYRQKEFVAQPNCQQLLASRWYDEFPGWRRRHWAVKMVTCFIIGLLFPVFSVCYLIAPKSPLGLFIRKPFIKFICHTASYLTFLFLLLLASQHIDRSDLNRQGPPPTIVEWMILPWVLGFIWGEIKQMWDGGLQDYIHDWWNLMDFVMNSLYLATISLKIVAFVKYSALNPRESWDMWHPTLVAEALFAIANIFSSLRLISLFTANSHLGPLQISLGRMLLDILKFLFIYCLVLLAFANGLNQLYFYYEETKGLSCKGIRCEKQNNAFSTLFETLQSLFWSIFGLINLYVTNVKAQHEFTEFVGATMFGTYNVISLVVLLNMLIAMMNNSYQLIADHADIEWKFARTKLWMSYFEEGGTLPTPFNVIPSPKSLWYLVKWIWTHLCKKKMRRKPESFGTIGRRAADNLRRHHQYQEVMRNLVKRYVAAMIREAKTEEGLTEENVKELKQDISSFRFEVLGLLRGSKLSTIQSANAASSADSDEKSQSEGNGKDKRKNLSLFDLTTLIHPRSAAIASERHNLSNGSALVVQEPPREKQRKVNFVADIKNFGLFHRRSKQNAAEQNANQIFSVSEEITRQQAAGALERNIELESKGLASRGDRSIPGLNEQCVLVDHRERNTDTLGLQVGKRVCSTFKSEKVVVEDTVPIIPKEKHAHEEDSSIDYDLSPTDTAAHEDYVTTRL

[2] = target: T2, High affinity choline transporter 1 (Homo sapiens, UniProt Q9GZV3); experiment: human choline transporter blockers, potency – cell-based, 5-point CRC, membrane potential dye, dose response (AID 504840); type: functional
T2 sequence (Q9GZV3 whole entry): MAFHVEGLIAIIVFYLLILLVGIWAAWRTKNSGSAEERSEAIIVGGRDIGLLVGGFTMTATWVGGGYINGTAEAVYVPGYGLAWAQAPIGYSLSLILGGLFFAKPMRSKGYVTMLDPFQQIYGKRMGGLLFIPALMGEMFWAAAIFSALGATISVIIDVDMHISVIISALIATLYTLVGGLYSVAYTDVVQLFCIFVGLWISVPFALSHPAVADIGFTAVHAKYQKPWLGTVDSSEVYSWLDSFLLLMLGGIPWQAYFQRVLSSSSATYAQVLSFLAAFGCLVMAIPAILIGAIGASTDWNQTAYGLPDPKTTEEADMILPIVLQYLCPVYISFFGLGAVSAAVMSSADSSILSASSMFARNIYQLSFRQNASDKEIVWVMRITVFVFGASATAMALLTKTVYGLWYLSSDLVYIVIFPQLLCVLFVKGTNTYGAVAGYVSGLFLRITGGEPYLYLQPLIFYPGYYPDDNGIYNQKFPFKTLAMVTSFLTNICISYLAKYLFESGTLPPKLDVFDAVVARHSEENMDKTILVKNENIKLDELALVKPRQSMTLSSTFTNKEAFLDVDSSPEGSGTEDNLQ

[3] = target: T3, Lysosomal acid glucosylceramidase (Homo sapiens, UniProt P04062); experiment: Dose response cell-based high throughput screening assay to identify enhancers of beta-glucosidase activity. [Related pubchem assays: 784 ]; type: functional
T3 sequence (P04062 whole entry): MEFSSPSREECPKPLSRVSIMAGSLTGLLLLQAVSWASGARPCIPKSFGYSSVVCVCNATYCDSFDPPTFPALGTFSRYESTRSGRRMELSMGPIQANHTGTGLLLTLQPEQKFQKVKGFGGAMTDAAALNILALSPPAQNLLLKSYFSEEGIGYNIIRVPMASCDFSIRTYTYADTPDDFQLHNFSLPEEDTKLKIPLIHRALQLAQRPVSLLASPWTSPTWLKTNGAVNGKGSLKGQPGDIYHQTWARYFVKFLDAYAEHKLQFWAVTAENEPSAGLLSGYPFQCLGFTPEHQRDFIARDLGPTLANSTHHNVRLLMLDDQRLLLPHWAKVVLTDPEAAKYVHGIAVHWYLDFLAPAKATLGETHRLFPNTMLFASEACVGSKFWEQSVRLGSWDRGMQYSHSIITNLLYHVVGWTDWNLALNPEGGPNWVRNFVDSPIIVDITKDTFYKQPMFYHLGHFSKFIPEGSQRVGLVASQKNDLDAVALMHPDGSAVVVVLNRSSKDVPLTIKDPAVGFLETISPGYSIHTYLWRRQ

Streptococcus = experiment: GAS UMAA2166 growth inhibition – luminescence, BacTiterGlo, counter-screen for streptokinase expression inhibitor project, dose response (AID 1915); type: functional, organism-based;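 note: potency for reduction of bacterial viability or growth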
Vero [4] = experiment: cells; type: functional, cell-based; conditions: Chlorocebus sabaeus
Vero [5] = experiment: cells; type: functional; conditions: Chlorocebus sabaeus
[6] = system: Streptococcus sp. 'group A'; experiment: Streptococcus pyogenes SK(-)GAS viability under kanamycin – luminescence, BacTiterGlo, confirmation, counter-screen for streptokinase expression inhibitor project, dose response (AID 1900); type: functional, organism-based
[7] = target: T4, Replicative DNA helicase DnaB (Mycobacterium tuberculosis, UniProt P9WMR3); experiment: DnaB intein splicing inhibitors, dose response, biochemical, cell-free fluorescence (AID 449749); type: functional
T4 sequence (P9WMR3 whole entry): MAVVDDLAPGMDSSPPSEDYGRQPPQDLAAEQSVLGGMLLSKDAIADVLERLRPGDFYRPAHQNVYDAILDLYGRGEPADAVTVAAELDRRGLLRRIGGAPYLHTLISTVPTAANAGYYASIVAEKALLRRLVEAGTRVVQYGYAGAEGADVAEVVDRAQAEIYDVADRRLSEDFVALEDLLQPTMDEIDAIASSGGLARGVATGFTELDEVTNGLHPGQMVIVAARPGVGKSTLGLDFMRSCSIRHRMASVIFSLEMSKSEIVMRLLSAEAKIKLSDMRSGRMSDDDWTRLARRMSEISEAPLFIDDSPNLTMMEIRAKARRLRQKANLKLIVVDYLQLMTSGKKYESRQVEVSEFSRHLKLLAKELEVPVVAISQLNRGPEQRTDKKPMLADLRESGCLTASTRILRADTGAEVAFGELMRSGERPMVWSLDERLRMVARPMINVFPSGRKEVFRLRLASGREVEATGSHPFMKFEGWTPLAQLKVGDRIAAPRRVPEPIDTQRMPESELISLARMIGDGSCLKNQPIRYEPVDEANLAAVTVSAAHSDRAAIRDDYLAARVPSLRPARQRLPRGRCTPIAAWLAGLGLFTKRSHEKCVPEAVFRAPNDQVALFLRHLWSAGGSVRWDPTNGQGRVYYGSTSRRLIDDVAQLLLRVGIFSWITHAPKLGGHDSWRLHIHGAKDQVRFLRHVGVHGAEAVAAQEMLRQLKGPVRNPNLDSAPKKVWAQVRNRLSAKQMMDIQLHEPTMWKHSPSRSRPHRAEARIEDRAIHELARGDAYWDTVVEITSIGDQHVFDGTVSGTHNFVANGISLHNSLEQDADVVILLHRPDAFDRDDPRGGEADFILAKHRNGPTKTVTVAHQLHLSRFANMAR

[8] = target: T5, Microphthalmia-associated transcription factor (Homo sapiens, UniProt O75030); experiment: reducers of TRPM1 reporter luminescence, concentration series – cell-based, SK-MEL-5, cherry-picked, set 3, MITF inhibitor project, dose response (AID 493073); type: functional;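 note: SK-MEL-5 melanoma cells with luciferase driven by the MITF target TRPM1 promoter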
T5 sequence (O75030 whole entry): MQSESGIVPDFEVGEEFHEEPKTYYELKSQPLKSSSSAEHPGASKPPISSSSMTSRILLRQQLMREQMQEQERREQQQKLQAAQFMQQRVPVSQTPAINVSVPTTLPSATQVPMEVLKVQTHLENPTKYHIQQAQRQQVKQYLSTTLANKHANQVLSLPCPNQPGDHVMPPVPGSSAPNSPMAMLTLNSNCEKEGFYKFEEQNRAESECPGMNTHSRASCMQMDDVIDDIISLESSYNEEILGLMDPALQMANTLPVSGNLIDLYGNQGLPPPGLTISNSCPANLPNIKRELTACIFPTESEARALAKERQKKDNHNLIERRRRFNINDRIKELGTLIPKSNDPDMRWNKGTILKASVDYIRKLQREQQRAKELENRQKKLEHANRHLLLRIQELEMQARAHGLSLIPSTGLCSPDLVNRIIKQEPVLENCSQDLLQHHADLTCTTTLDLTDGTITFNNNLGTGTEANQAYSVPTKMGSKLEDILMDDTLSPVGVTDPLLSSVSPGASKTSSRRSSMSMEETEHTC

Protein RecA = target: T6, Protein RecA (Mycobacterium tuberculosis, UniProt P9WHJ3); experiment: Fluorescence Cell-Free Homogeneous Dose Retest to Identify Inhibitors of RecA-Intein Splicing Activity. [Related pubchem assays (depositor defined):AID2097, AID2223, AID489010, AID492950]; type: functional
T6 sequence (P9WHJ3 whole entry): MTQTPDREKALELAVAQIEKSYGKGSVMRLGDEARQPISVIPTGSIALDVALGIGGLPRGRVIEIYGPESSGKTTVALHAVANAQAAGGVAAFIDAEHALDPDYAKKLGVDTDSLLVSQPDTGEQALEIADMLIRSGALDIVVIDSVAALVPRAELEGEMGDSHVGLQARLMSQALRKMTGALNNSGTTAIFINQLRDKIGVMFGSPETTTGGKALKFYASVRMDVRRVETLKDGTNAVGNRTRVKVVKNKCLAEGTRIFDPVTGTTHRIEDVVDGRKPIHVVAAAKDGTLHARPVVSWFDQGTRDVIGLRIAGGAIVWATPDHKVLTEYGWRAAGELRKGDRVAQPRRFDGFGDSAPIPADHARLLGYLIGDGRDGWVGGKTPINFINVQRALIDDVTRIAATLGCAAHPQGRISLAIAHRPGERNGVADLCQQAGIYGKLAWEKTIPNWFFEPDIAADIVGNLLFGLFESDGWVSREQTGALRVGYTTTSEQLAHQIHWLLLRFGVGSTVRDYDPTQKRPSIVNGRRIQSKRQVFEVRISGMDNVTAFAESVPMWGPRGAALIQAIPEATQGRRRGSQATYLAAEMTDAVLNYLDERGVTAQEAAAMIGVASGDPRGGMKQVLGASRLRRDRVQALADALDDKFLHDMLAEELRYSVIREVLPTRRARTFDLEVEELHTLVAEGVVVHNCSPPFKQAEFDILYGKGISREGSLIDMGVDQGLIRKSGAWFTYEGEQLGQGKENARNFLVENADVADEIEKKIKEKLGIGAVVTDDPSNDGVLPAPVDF

For `CCOC(=O)C1(c2ccccc2)CCN(CCC(=O)Nc2ccccc2OC)CC1`, the EC50 [1] was 1.88 µM (active).

For `N=C(N)Nc1nc(C2COc3ccccc3O2)cs1` (configuration not stated), the IC50 [2] was 12.6 µM (active).

With `CCN1CCN(c2nc(-c3cccnc3)nc3ccccc23)CC1` the EC50 [3] was > 50 µM (not active).

For `Cc1onc(-c2ccccc2)c1C(=O)NNC(=S)NC(=O)c1ccc(Cl)cc1Cl`, the EC50 (Streptococcus) was 1.8 µM (active), the IC50 (Vero [4]) was 22.7 µM (active) and the CC50 (Vero [5]) was > 25 µM (active). For the same compound, the EC50 [6] was 0.441 µM (active) and the EC50 [1] was 1.88 µM (active).

With `Cc1ccc2c(c1)[C@H]1OCC[C@H]1[C@@H](c1ccncc1)N2` the EC50 [3] was > 10 µM (not active).

`CCN(Cc1ccc(OC)c(F)c1)C(=O)CCl` was tested, and the AC50 [7] was 162 µM (active), the AC50 [8] was 3.36 µM (active) and the EC50 (Protein RecA) was 5.37 µM (active).

In the case of `CCOC(=O)c1cc(NC(=O)c2ccoc2C)cc(C(=O)OCC)c1`, the IC50 [2] is reported as 14.5 µM (active).

In the case of `CN1CCN(C(=O)CCCN2C(=O)/C(=C/c3ccccc3)SC2=S)CC1`, the IC50 [2] is reported as 13.5 µM (active).

With `Cc1oc(-c2ccccc2)cc1C(=O)Nc1cccc(/C=C\C(=O)O)c1` the IC50 [2] was 11.2 µM (active).

For `CCn1c(CCNC(=O)c2ccc(Cl)cc2)nnc1SCC(=O)NC1CCCC1`, the EC50 [3] was > 50 µM (not active).

`COc1ccc2c(c1O)[C@]13CCN(C)[C@H](C2)[C@@H]1CCC(=O)C3` was tested, and the EC50 [1] was 0.0427 µM (active).

— ChEMBL document CHEMBL1201862, “PubChem BioAssay data set” (2004)
